Source: patent US6548043B1, “Measurement of gastric emptying” (Metabolic Solutions, Inc., priority 1999, dated 2003)

Assay: GMBT, influence of a promotility agent
Assay type: in vivo, human
Details: Cisapride 10 mg the evening before and one half hour before a 350 kcal muffin test meal
Experimental: An experiment was done to examine the ability of the GMBT to detect changes introduced by the promotility agent, Cisapride. Gastric emptying tests employing a 350 kcal muffin test meal were administered on two occasions within a one-week period. One test was conducted as a control. The other test was conducted after treatment with Cisapride. Cisapride (10 mg) was administered at 10:00 P.M. on the evening prior to the test and one half hour before administration of the muffin test meal. Gastric emptying results for the control meal were delayed relative to the meal administered with Cisapride.

In the case of COc1cc(N)c(Cl)cc1C(=O)NC1CCN(CCCOc2ccc(F)cc2)CC1OC (centres unmarked) [Cisapride], the “change in T½ versus control” value (p=0.05) is reported as “significant decrease” and the “change in Tlag versus control” value (p=0.21) is reported as “not significant”.
